For the assay, the system named is P388 leukemia ip, CD2F1 mice, survival T/C. The experiment in a line: NCI In Vivo Anticancer Drug Screen. Data for tumor model P388 Leukemia (intraperitoneal) in CD2F1 (CDF1) mice. The following applies: endpoint: median survival time, higher = longer survival. A digest of the protocol:
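Mice carrying the transplanted tumor received test compound or vehicle. Survival was recorded in each group, and the value is the treated-group measurement divided by that of the vehicle-treated control group.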

The mark [1] stands for this setting: dose: 50.0 mg/kg/injection, schedule: Q01DX009 (ip), vehicle: Klucel (hydroxypropylcellulose) (HPC).
Where [2] appears, read: dose: 100.0 mg/kg/injection, schedule: Q01DX009 (ip), vehicle: Klucel (hydroxypropylcellulose) (HPC).
[3] abbreviates: dose: 200.0 mg/kg/injection, schedule: Q01DX009 (ip), vehicle: Klucel (hydroxypropylcellulose) (HPC).
The mark [4] stands for this setting: dose: 50.0 mg/kg/injection, schedule: Q01DX005 (ip), vehicle: saline with Tween-80.
[5] abbreviates: dose: 100.0 mg/kg/injection, schedule: Q01DX005 (ip), vehicle: saline with Tween-80.
[6] abbreviates: dose: 200.0 mg/kg/injection, schedule: Q01DX005 (ip), vehicle: saline with Tween-80.
Setting [7] is: dose: 25.0 mg/kg/injection, schedule: Q01DX005 (ip), vehicle: saline with Tween-80.

“And” between values parts separate entries of the source, which are not always exact repeats. Equal values may be shown once. Inconclusive results and toxic doses are left out.

Regarding `CSc1nc2[nH]ncc2c(=O)[nH]1`, the T/C is, setting by setting: (dose: 25.0 mg/kg/injection, schedule: Q01DX009 (ip), vehicle: Klucel (hydroxypropylcellulose) (HPC)) 101 % of control; under setting [1], 99 % of control; under setting [2], 93 % of control; under setting [3], 86 % of control.

Take `C(=N/NC1=NCCN1)/c1ccnc2ccccc12`: the T/C is, setting by setting: (dose: 15.0 mg/kg/injection, schedule: Q01DX005 (ip), vehicle: saline) 100 % of control; (dose: 30.0 mg/kg/injection, schedule: Q01DX005 (ip), vehicle: saline) 98 % of control; (dose: 60.0 mg/kg/injection, schedule: Q01DX005 (ip), vehicle: saline) 101 % of control and 92 % of control.

Take `CNC(=N)c1ccc(NC(=N)c2ccc(NC(=N)c3ccc(NC(=O)Nc4ccc(C(=N)Nc5ccc(C(=N)Nc6ccc(C(=N)NC)cc6)cc5)cc4)cc3)cc2)cc1`: the T/C reads like this: (dose: 1.78 mg/kg/injection, schedule: Q04DX003 (ip), vehicle: saline with Tween-80) 108 % of control; (dose: 2.66 mg/kg/injection, schedule: Q04DX003 (ip), vehicle: saline with Tween-80) 108 % of control; (dose: 4.0 mg/kg/injection, schedule: Q04DX003 (ip), vehicle: saline with Tween-80) 116 % of control.

Turning to `CC(=O)NC1CCCCC1C1CCC([N+](=O)[O-])CC1` (stereo not drawn), the T/C is 101 % of control under setting [4], 99 % of control under setting [5] and 99 % of control under setting [6].

As to `ClC1=C(Cl)C(=C2CCCC2)C(Cl)=C1Cl`, the T/C reads like this: under setting [1], 100 % of control; under setting [2], 100 % of control; under setting [3], 87 % of control.

`Cc1ccc(S(=O)(=O)OCC2(COS(=O)(=O)c3ccc(C)cc3)CCC2)cc1`: the T/C reads like this: (dose: 60.0 mg/kg/injection, schedule: Q01DX005 (ip), vehicle: saline with Tween-80) 102 % of control; (dose: 120.0 mg/kg/injection, schedule: Q01DX005 (ip), vehicle: saline with Tween-80) 100 % of control; (dose: 240.0 mg/kg/injection, schedule: Q01DX005 (ip), vehicle: saline with Tween-80) 100 % of control.

For the molecule `C1=CC2C=CC1C2c1ccccc1` (stereo not drawn), the T/C is 108 % of control and 86 % of control (dose: 50.0 mg/kg/injection, schedule: Q01DX009 (ip), vehicle: saline); 105 % of control and 111 % of control (dose: 100.0 mg/kg/injection, schedule: Q01DX009 (ip), vehicle: saline); 116 % of control and 98 % of control (dose: 200.0 mg/kg/injection, schedule: Q01DX009 (ip), vehicle: saline).

For `O=c1[nH]c(=O)c2cc3[nH]ncc3cc2[nH]1`, the T/C reads like this: under setting [7], 93 % of control; under setting [4], 93 % of control; under setting [5], 92 % of control.

Turning to `CCC(CC)(C(=O)Nc1ccc2nc(C)cc(N)c2c1)C(=O)Nc1ccc2nc(C)cc(N)c2c1`, the T/C reads like this: (dose: 12.5 mg/kg/injection, schedule: Q01DX005 (ip), vehicle: saline with Tween-80) 102 % of control; under setting [7], 90 % of control; under setting [4], 87 % of control and 93 % of control; under setting [6], 93 % of control.

As to `NC(=S)N/N=C/c1nccc2ccccc12`, the T/C reads like this: (dose: 9.4 mg/kg/injection, schedule: Q01DX009 (ip), vehicle: saline with Tween-80) 153 % of control; (dose: 37.5 mg/kg/injection, schedule: Q01DX009 (ip), vehicle: saline) 150 % of control; (dose: 75.0 mg/kg/injection, schedule: Q01DX009 (ip), vehicle: saline) 150 % of control; (dose: 100.0 mg/kg/injection, schedule: Q01DX009 (ip), vehicle: saline with Tween-80) 152 % of control; (dose: 200.0 mg/kg/injection, schedule: Q01DX009 (ip), vehicle: saline with Tween-80) 98 % of control.

Take `NC(=O)C(O)C1OC(COCc2ccccc2)C(OCc2ccccc2)C1OCc1ccccc1` (stereo not drawn): the T/C was 90 % of control and 104 % of control (dose: 12.5 mg/kg/injection, schedule: Q01DX009 (ip), vehicle: distilled water + Tween-80); 92 % of control and 95 % of control (dose: 25.0 mg/kg/injection, schedule: Q01DX009 (ip), vehicle: distilled water + Tween-80); 106 % of control and 100 % of control (dose: 50.0 mg/kg/injection, schedule: Q01DX009 (ip), vehicle: distilled water + Tween-80); 100 % of control and 89 % of control (dose: 100.0 mg/kg/injection, schedule: Q01DX009 (ip), vehicle: distilled water + Tween-80); 104 % of control and 97 % of control (dose: 200.0 mg/kg/injection, schedule: Q01DX009 (ip), vehicle: distilled water + Tween-80).

Turning to `C1=CC(=CN2CCc3ccccc3C2)C=C1`, the T/C runs as follows: (dose: 60.0 mg/kg/injection, schedule: Q01DX005 (ip), vehicle: Klucel (hydroxypropylcellulose) (HPC)) 101 % of control; (dose: 120.0 mg/kg/injection, schedule: Q01DX005 (ip), vehicle: Klucel (hydroxypropylcellulose) (HPC)) 102 % of control; (dose: 240.0 mg/kg/injection, schedule: Q01DX005 (ip), vehicle: Klucel (hydroxypropylcellulose) (HPC)) 103 % of control.

Turning to `CCCC1(CC(=O)OCC)SCCN1C(=O)OCC` (stereo not drawn), the T/C under setting [7] is 102 % of control, the T/C under setting [4] was 102 % of control, the T/C under setting [5] was 102 % of control and the T/C under setting [6] is 102 % of control.

Turning to `CCOC(=O)CCOc1ccccc1N(CCCl)CCCl`, the T/C runs as follows: (dose: 3.13 mg/kg/injection, schedule: Q04DX003 (ip), vehicle: saline with Tween-80) 150 % of control; (dose: 6.25 mg/kg/injection, schedule: Q04DX003 (ip), vehicle: saline with Tween-80) 163 % of control.

Consider `COc1cccc2c1C(=O)c1c(O)c3c(c(O)c1C2=O)CC(O)(C(C)=O)CC3OC1CC(N)C(O)C(C)O1` (stereo not drawn) (tested in a mixture with another compound), for which the T/C was 105 % of control and 110 % of control and 114 % of control (dose: 4.69 mg/kg/injection, schedule: Q04DX003 (ip), vehicle: water); 114 % of control and 124 % of control and 112 % of control (dose: 9.38 mg/kg/injection, schedule: Q04DX003 (ip), vehicle: water); 118 % of control and 103 % of control (dose: 9.4 mg/kg/injection, schedule: Q04DX003 (ip), vehicle: water); 114 % of control and 112 % of control and 116 % of control (dose: 18.75 mg/kg/injection, schedule: Q04DX003 (ip), vehicle: water); 114 % of control and 124 % of control and 118 % of control (dose: 37.5 mg/kg/injection, schedule: Q04DX003 (ip), vehicle: water); 109 % of control [middle of 6 runs] (dose: 75.0 mg/kg/injection, schedule: Q04DX003 (ip), vehicle: water). Moreover, for the setting “dose: 150.0 mg/kg/injection, schedule: Q04DX003 (ip), vehicle: water”, the T/C is 91 % of control and 98 % of control.

With `N#CN=[N+]([O-])c1ccc(Cl)cc1`, the T/C reads like this: (dose: 3.12 mg/kg/injection, schedule: Q01DX009 (ip), vehicle: Klucel (hydroxypropylcellulose) (HPC)) 107 % of control; (dose: 6.25 mg/kg/injection, schedule: Q01DX009 (ip), vehicle: Klucel (hydroxypropylcellulose) (HPC)) 114 % of control; (dose: 6.25 mg/kg/injection, schedule: Q04DX003 (ip), vehicle: Klucel (hydroxypropylcellulose) (HPC)) 97 % of control; (dose: 12.5 mg/kg/injection, schedule: Q01DX009 (ip), vehicle: Klucel (hydroxypropylcellulose) (HPC)) 98 % of control; (dose: 12.5 mg/kg/injection, schedule: Q04DX003 (ip), vehicle: Klucel (hydroxypropylcellulose) (HPC)) 95 % of control; (dose: 25.0 mg/kg/injection, schedule: Q04DX003 (ip), vehicle: Klucel (hydroxypropylcellulose) (HPC)) 98 % of control.

Consider `COc1ccc2[nH]c3cc4c(=O)c5cc(OC)ccc5[nH]c4cc3c(=O)c2c1`, for which the T/C is, setting by setting: under setting [1], 96 % of control; under setting [2], 100 % of control; under setting [3], 100 % of control.

Turning to `CC(CCOCCCBr)OC(=O)CCOCCC(=O)OC(C)CCOCCCBr` (stereo not drawn), the T/C runs as follows: (dose: 50.0 mg/kg/injection, schedule: Q01DX005 (ip), vehicle: Klucel (hydroxypropylcellulose) (HPC)) 100 % of control; (dose: 100.0 mg/kg/injection, schedule: Q01DX005 (ip), vehicle: Klucel (hydroxypropylcellulose) (HPC)) 98 % of control; (dose: 200.0 mg/kg/injection, schedule: Q01DX005 (ip), vehicle: Klucel (hydroxypropylcellulose) (HPC)) 100 % of control.

Turning to `CCOP(=O)(OCC)/C(C#N)=C\c1ccc(N(C)C)cc1`, the T/C is, setting by setting: (dose: 100.0 mg/kg/injection, schedule: Q01DX001 (ip), vehicle: saline with Tween-80) 100 % of control; (dose: 200.0 mg/kg/injection, schedule: Q01DX001 (ip), vehicle: saline with Tween-80) 104 % of control; (dose: 400.0 mg/kg/injection, schedule: Q01DX001 (ip), vehicle: saline with Tween-80) 100 % of control.

Regarding `COc1ccc2c(c1)C1(C)c3cc(OC)ccc3OC1(C)O2` (stereo not drawn), the T/C was 103 % of control (dose: 50.0 mg/kg/injection, schedule: Q01DX009 (ip), vehicle: other); 95 % of control (dose: 100.0 mg/kg/injection, schedule: Q01DX009 (ip), vehicle: other); 103 % of control (dose: 200.0 mg/kg/injection, schedule: Q01DX009 (ip), vehicle: other).

The record behind these values is PubChem BioAssay AID330 (DTP/NCI, 2004).
